Results published in ChEMBL document CHEMBL4257523, “Chemical probes of Skp2-mediated p27 ubiquitylation and degradation” (Medchemcomm, 2018).
One block for each compound: values may come before it.

Columns and labels:
[1] = system: RPMI-8226; assay: Antiproliferative activity against human RPMI8226 cells; assay type: functional, cell-based
[2] = system: U-266; assay: Antiproliferative activity against human U266 cells; assay type: functional, cell-based
[3] = system: MM1.S; assay: Antiproliferative activity against human MM1S cells; assay type: functional, cell-based
[4] = Antiproliferative activity against human ANBL-6 cells; assay type: functional, cell-based
[5] = Antiproliferative activity against human RPMI8226/LR5 cells; assay type: functional, cell-based; conditions: RPMI-8226
[6] = system: RPMI-8226; assay: Antiproliferative activity against doxorubicin-resistant human RPMI8226 cells; assay type: functional, cell-based
[7] = Antiproliferative activity against human U266/LR6 cells; assay type: functional, cell-based; conditions: U-266
[8] = Antiproliferative activity against human MM1R cells; assay type: functional, cell-based; conditions: MM.1R
[9] = Antiproliferative activity against human ANBL6/B7R cells; assay type: functional, cell-based; conditions: ANBL-6
[10] = system: S-phase kinase-associated protein 1/S-phase kinase-associated protein 2 (Homo sapiens); assay: Inhibition of SKP1/SKP2 protein-protein interaction in human MM1S cells assessed as reduction in p27 ubiquitylation at 10 uM after 16 hrs by PAGE analysis relative to control
[11] = system: S-phase kinase-associated protein 1/S-phase kinase-associated protein 2 (Homo sapiens); assay: Inhibition of SKP1/SKP2 protein-protein interaction in human MM1S cells assessed as reduction in p27 ubiquitylation at 20 uM after 16 hrs by PAGE analysis relative to control
[12] = system: S-phase kinase-associated protein 1/S-phase kinase-associated protein 2 (Homo sapiens); assay: Inhibition of SKP1/SKP2 protein-protein interaction in human MM1S cells assessed as reduction in p27 ubiquitylation at 25 uM after 16 hrs by PAGE analysis relative to control
[13] = system: HeLa; assay: Antiproliferative activity against human HeLa cells; assay type: functional, cell-based
[14] = Antiproliferative activity against mouse tsFT210 cells; assay type: functional, cell-based
[15] = system: NIH3T3; assay: Antiproliferative activity against mouse NIH/3T3 cells; assay type: functional, cell-based
[16] = molecular target: T1, Cyclin-dependent kinases regulatory subunit 1/S-phase kinase-associated protein 2 (Homo sapiens, UniProt P61024+Q13309); assay: Inhibition of N-terminal fluorescent monomeric Azami Green-tagged SKP2 (unknown origin)/CKS1 (unknown origin) expressed in Escherichia coli DH10 protein-protein interaction assessed as reduction in p27 ubiquitylation at 0.4 to 3.2 uM relative to control
Target sequence in this assay (P61024 2-79 limits assumed): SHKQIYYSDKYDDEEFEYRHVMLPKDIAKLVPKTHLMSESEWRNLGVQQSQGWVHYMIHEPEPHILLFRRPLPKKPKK
Target sequence in this assay (Q13309 whole entry partner): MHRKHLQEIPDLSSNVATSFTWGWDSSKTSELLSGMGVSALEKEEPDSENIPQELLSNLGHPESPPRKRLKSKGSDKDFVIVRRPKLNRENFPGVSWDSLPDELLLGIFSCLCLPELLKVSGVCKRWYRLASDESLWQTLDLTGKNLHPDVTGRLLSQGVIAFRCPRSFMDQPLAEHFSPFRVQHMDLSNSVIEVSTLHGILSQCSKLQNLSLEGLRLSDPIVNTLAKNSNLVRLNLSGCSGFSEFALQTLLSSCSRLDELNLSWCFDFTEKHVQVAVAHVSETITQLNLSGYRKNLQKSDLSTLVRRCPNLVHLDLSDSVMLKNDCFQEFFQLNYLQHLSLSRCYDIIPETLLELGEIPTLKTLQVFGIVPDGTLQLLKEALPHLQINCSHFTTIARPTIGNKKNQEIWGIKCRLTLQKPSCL

[17] = molecular target: T1, Cyclin-dependent kinases regulatory subunit 1/S-phase kinase-associated protein 2; assay: Inhibition of GST-tagged SKP2 (unknown origin)/His6-tagged CKS1 (unknown origin) expressed in Escherichia coli protein-protein interaction after 1 hr by Alpha screen assay
Target sequence in this assay (P61024 whole entry): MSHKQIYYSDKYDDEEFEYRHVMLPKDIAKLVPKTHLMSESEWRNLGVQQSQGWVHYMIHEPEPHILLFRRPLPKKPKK
Target sequence in this assay (Q13309 whole entry): as the sequence (Q13309 whole entry partner) above

[18] = system: JeKo-1; assay: Antiproliferative activity against human JeKo1 cells; assay type: functional, cell-based
[19] = Antiproliferative activity against human ECC1 cells; assay type: functional, cell-based; conditions: ECC-1

IC50 [13]: 3.2 µM
inhibition [16]: 70 to 80%
SMILES: C=C(C)C(=O)O[C@H]1CC(=C)[C@@H]2C[C@H](O)[C@](O)(CCl)[C@@H]2[C@H]2OC(=O)C(=C)[C@@H]21
IC50 [14]: 1.6 µM
IC50 [15]: 12.7 µM

IC50 [17]: 36 µM
SMILES: O=C(OC12CC3CC(CC(C3)C1)C2)c1ccc(NCc2cc(O)ccc2O)cc1

The next lines start with the compound.

SMILES: CN(C)c1ccc(CNCCC(Cc2ccccc2)C2CCOC(C)(C)C2)cc1 (configuration not stated)
IC50 [1]: 8 µM
IC50 [2]: 4.2 µM
IC50 [3]: 5.4 µM
IC50 [4]: 10 µM
IC50 [5]: 6.3 µM
IC50 [6]: 8.5 µM
IC50 [7]: 4.3 µM
IC50 [8]: 5.4 µM
IC50 [9]: 8 µM
inhibition [10]: 8%
inhibition [11]: 44%
inhibition [12]: 51%

SMILES: CN(C)c1ccc(C(=C2C=CC(=[N+](C)C)C=C2)c2ccc(N(C)C)cc2)cc1 [GENTIAN VIOLET]
IC50 [13]: 0.4 µM
IC50 [14]: 0.6 µM
IC50 [15]: 5.3 µM

SMILES: COC(=O)C1=C(C)N(c2ccc(Br)cc2)C(=O)/C1=C\c1ccccc1O
EC50 [18]: 9.3 µM
EC50 [19]: 14.3 µM
